Entries after “also recorded” stand apart in the source; their conditions may differ.
How the values were obtained:
[1] = tested on: primary cardiomyocytes isolated from healthy Sprague Dawley rats; assay: Unloaded shortening contractility of healthy isolated cardiomyocytes; assay type: cell-based; conditions: healthy rat cardiomyocytes
Experimental: FIG. 13: Dose-dependent modest improvement in contraction and relaxation kinetics during unloaded shortening upon VASH inhibition in primary cardiomyocytes isolated from healthy Sprague Dawley rats. A) Resting sarcomere length, B) fractional shortening, C) contraction time and D) relaxation time in healthy isolated rat cardiomyocytes. n=50-60 myocytes per group from N=3 Sprague Dawley rats. One-way ANOVA.
Contractility was measured in a custom-fabricated cell chamber (IonOptix) mounted on an LSM Zeiss 880 inverted confocal microscope using either a 40 or 63× oil 1.4 numerical aperture objective and transmitted light camera (IonOptix MyoCam-S). Experiments were conducted at room temperature and field stimulation was provided at 1.0 Hz with a cell stimulator (MyoPacer, IonOptix). After 10-30 seconds of pacing to achieve steady state, five traces were recorded and analyzed. Sarcomere length was measured optically by Fourier transform analysis (IonWizard, IonOptix).

[2] = tested on: primary cardiomyocytes isolated from ZSF1-Lean or ZSF1 Obese rats; assay: Cardiomyocyte stretch longitudinal stiffness; assay type: cell-based, rat; conditions: 10% strain
Experimental: FIG. 18: Reduced longitudinal stiffness upon VASH inhibition in primary cardiomyocytes isolated from ZSF1-Lean or ZSF1 Obese rats. A) Diastolic Stiffness (elastic modulus at the initial time of peak strain) upon a 10%, 200 ms strain along the long-axis of an isolated cardiomyocyte; B) Stead state stiffness upon strain and hold, and C) stress relaxation (indicator of viscoelasticity) in ZSF1-Lean and Obese cardiomyocytes.
Either freshly isolated or cultured myocytes were diluted to a sparse density (~10×) into a large (22×50 mm) glass bottom petri dish coated with BSA to prevent myocyte adhesion with Normal Tyrodes solution. A small aliquot of Myotak™ was freshly thawed and a 1.5 uL droplet was placed in a dry area of the petri dish and allowed to polymerize (2-3 min). When the droplet had become “tacky” laser etched glass rods (Ion Optix LLC) were lowered into the solution several times to create a thin coating of Myotak which was allowed to dry for 90 seconds before the probes were submersed into the cell-containing bath. […] The Myostretcher apparatus (Ion Optix LLC) was used to stretch myocytes by roughly 10% over either a 200 ms (diastolic) or 5 s (slow) interval while force and sarcomere length were recorded using the Ion Wizard software and MyoCam imaging system (live FFT). […]

ZSF1-Lean and Obese rats = assay: Myocardial tubulin detyrosination after IV injection in ZSF1 rats (western blot, immunofluorescence); assay type: in vivo, rat; conditions: for detyrosinated tubulin in myocardial tissue (words): IV injections, 30 weeks old ZSF1 rats, western blot
Experimental: FIG. 23: immunofluorescence imaging to detect tubulin detyrosination on LV tissue and evaluate changes in the abundance of detyrosinated tubulin following SVC-02 treatment.
FIG. 24: Quantification of immunofluorescence imaging analysis performed on LV tissue to evaluate changes in microtubule density (SVC-02 as VASHi).
Formalin fixed paraffin embedded (FFPE) sections on glass slides were deparaffinized by sequential washes in xylenes, and decreasing concentrations of ethanol (100%, 95%, 75%, and 50%) followed by ddH2O. Slides were placed in 1× Reveal decloaking solution (Biocare Medical, Catalog #RV1000M) for antigen retrieval. Antigen retrieval was performed using a pressure cooker (Instant Pot Pro 10-in-1 pressure cooker, 8 Quart, Amazon.com) for 15 minutes at high pressure. After cooling, slides underwent a second round of antigen retrieval in 1× Antigen Unmasking Solution, Citric Acid Based (Vector Laboratories, Catalog #H-3300-250) in a pressure cooker for 15 minutes at high pressure. Next, the slides were washed in ddH2O, followed by PBS. The slides were permeabilized with PBS+0.25% Triton X-100, followed by incubation in fish serum blocking buffer (Thermo Scientific, Catalog #37527) containing 0.1% Tween 20 for 1 hour at RT.
Sections were co-stained with Mouse monoclonal (B-5-1-2) antibody to α-tubulin (Sigma-Aldrich, Catalog #T5168; 1:50) and Rabbit polyclonal detyrosinated α-tubulin antibody (ab48389 Lot #GR3425171; 1:50) in blocking buffer for 2 days at RT. Sections were washed in PBS containing 0.1% Tween 20 (PBST) and then incubated in goat anti-rabbit conjugated to Alexa Fluor 647 and goat anti-mouse conjugated to Alexa Fluor 568 secondary antibodies along with Alexa Fluor 488 conjugated WGA (Invitrogen Catalog #W11261; final concentration 25 μg/mL) in PBST for 2 days at RT. The sections were then stained with Hoechst 33342, Trihydrochloride, Trihydrate (Invitrogen Catalog #H3570, final concentration 10 μg/mL in PBS) and mounted in Prolong Diamond Antifade Mountant (Invitrogen Catalog #P36961).
Longitudinally oriented cardiomyocytes within the myocardium were identified. Four channel Z-stacks (4×500 nm slices) of myocardial regions were imaged using a 63× oil immersion objective (1.4 NA) on a Zeiss Airyscan 880 microscope with 18.3 nm×18.3 nm pixel size. The images were background subtracted and maximum intensity projections were generated in FIJI (NIH). Rectangular ROIs were blindly drawn within the cytosolic portion of individual cardiomyocytes, while excluding the nuclei and perinuclear regions, using the WGA and Hoechst channels. The α-tubulin and detyrosinated microtubule images were extracted from the ROIs. […] The microtubule density was calculated as the percent area coverage of the binary maps within each ROI. […]

Swiss mice = assay: Organ histology (Hematoxylin and Eosin) after systemic treatment; assay type: in vivo, mouse
Excerpt: To further ascertain the safety profile of the compounds in an animal model, we administered SVC-02 to Swiss mice and analysed by immunohistological description different organ structures including kidney, heart and lung.

Row | SMILES | contraction and relaxation times [1] | viscoelastic longitudinal stiffness [2] | detyrosinated tubulin in myocardial tissue (words) (ZSF1-Lean and Obese rats) | detyrosinated tubulin in myocardial tissue (words) (ZSF1-Lean and Obese rats; listed as SVC-02) | reduction of tubulin detyrosination in heart tissue (ZSF1-Lean and Obese rats; lean and obese animals, 8 hours following intravenous injection) | density of detyrosinated-microtubules in LV tissue (ZSF1-Lean and Obese rats; obese animals, immunofluorescence, vs vehicle) | organ structure (kidney, heart and lung) histology (Swiss mice)
1 | O=C(O)CCC[C@H](NC(=O)[C@H]1O[C@@H]1C(=O)C[C@@H](Cc1ccc(OCc2ccccc2)cc1)C(=O)O)C(=O)NCCc1ccccc1 [SVC_01] | dose-dependent and statistically significant improvements | viscoelastic longitudinal stiffness is reduced | – | – | – | – | –
2 | CCOC(=O)[C@H](Cc1ccc(OCC)cc1)NC(=O)[C@H]1O[C@@H]1C(=O)N[C@@H](Cc1ccc(OCC)cc1)C(=O)OCC [SVC_02] | – | – | efficient reduction in detyrosinated tubulin | significantly reduced detyrosinated tubulin abundance | about 60% | significant reduction in the density of detyrosinated-microtubules | normal appearance of different organs; also recorded: did not alter organ structure
